Laboratory results published in PubChem BioAssay (NCI).
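A five-concentration, 48-hour dose response in 96-well plates underlies each endpoint, interpolated linearly between surrounding concentrations. TGI: concentration producing complete growth inhibition.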

Experiments:
Experiment in all cases: NCI-60 cell line screen, 48 h
[1] = system: 786-0 renal
[2] = system: A498 renal
[3] = system: A549 NSCLC
[4] = system: ACHN renal
[5] = system: BT-549 breast
[6] = system: CAKI-1 renal
[7] = system: COLO 205 colon
[8] = system: DU-145 prostate
[9] = system: EKVX NSCLC
[10] = system: HCC-2998 colon
[11] = system: HCT-116 colon
[12] = system: HCT-15 colon
[13] = system: HL-60(TB) leukemia
[14] = system: HOP-92 NSCLC
[15] = system: HS 578T breast
[16] = system: HT29 colon
[17] = system: IGROV1 ovarian
[18] = system: K-562 leukemia
[19] = system: KM12 colon
[20] = system: LOX IMVI melanoma
[21] = system: M14 melanoma
[22] = system: MALME-3M melanoma
[23] = system: MDA-MB-231 breast
[24] = system: MDA-MB-435
[25] = system: MDA-N
[26] = system: MOLT-4 leukemia
[27] = system: NCI-H226 lung
[28] = system: NCI-H23 lung
[29] = system: NCI-H460 lung
[30] = system: NCI-H522 lung
[31] = system: NCI/ADR-RES ovarian
[32] = system: OVCAR-3 ovarian
[33] = system: OVCAR-4 ovarian
[34] = system: OVCAR-5 ovarian
[35] = system: OVCAR-8 ovarian
[36] = system: PC-3 prostate
[37] = system: RPMI-8226 leukemia
[38] = system: SF-268 CNS
[39] = system: SF-295 CNS
[40] = system: SF-539 CNS
[41] = system: SK-MEL-2 melanoma
[42] = system: SK-MEL-28 melanoma
[43] = system: SK-MEL-5 melanoma
[44] = system: SK-OV-3 ovarian
[45] = system: SN12C renal
[46] = system: SNB-19 CNS
[47] = system: SNB-75 CNS
[48] = system: SW-620 colon
[49] = system: T-47D breast
[50] = system: TK-10 renal
[51] = system: U251 CNS
[52] = system: UACC-257 melanoma
[53] = system: UACC-62 melanoma
[54] = system: UO-31 renal
[55] = system: CCRF-CEM leukemia
[56] = system: HOP-62 NSCLC
[57] = system: MCF7 breast
[58] = system: RXF 393 renal
[59] = system: SR leukemia

In the case of `CO[C@H]1C=C[C@]23c4cc5c(cc4CN(CC2O)[C@@H]3C1)OCO5` (stereo not given in full), the TGI [1] is reported as 16.5 µM, the TGI [2] is reported as 9.66 µM and the TGI [3] is reported as 44.9 µM. The TGI [4] was 6.73 µM, the TGI [5] was 13.7 µM and the TGI [6] was > 100 µM. The TGI [7] was 17.9 µM, the TGI [8] was 7.62 µM and the TGI [9] was 52.2 µM. The TGI [10] was 16.7 µM, the TGI [11] was 19.3 µM and the TGI [12] was 24.9 µM. For the same compound, the TGI [13] was 0.32 µM, the TGI [14] was 2.74 µM and the TGI [15] was 81.9 µM. For the same compound, the TGI [16] was 39.7 µM, the TGI [17] was 26 µM and the TGI [18] was > 100 µM. The TGI [19] was 28.3 µM, the TGI [20] was 21.3 µM and the TGI [21] was > 100 µM. It also gave a TGI [22] of 20.4 µM, a TGI [23] of 34.6 µM and a TGI [24] of 41.9 µM. The TGI [25] was 64.8 µM, the TGI [26] was 8.97 µM and the TGI [27] was 61.3 µM. For the same compound, the TGI [28] was 33 µM, the TGI [29] was 36.1 µM and the TGI [30] was 16 µM. The TGI [31] was 58.8 µM, the TGI [32] was 22.3 µM and the TGI [33] was 11.3 µM. For the same compound, the TGI [34] was > 100 µM, the TGI [35] was 38.5 µM and the TGI [36] was 18.6 µM. For the same compound, the TGI [37] was > 100 µM, the TGI [38] was 32.7 µM and the TGI [39] was 4.14 µM. The TGI [40] was 14.6 µM, the TGI [41] was 6.31 µM and the TGI [42] was 54.9 µM. It also gave a TGI [43] of 17.8 µM, a TGI [44] of 3.3 µM and a TGI [45] of 29.4 µM. The TGI [46] was 40.9 µM, the TGI [47] was 30.4 µM and the TGI [48] was > 100 µM. For the same compound, the TGI [49] was 18.2 µM, the TGI [50] was > 100 µM and the TGI [51] was 38.3 µM. For the same compound, the TGI [52] was 42.8 µM, the TGI [53] was 19.6 µM and the TGI [54] was 8.47 µM.

With `OC(CC(c1ccccc1)c1ccc(Cl)cc1)c1ccc(Cl)cc1` (stereo not given) the TGI [1] was > 100 µM, the TGI [2] was 69.1 µM and the TGI [3] was > 100 µM. For the same compound, the TGI [4] was 77.6 µM, the TGI [5] was > 100 µM and the TGI [6] was > 100 µM. The TGI [55] was > 100 µM, the TGI [7] was 34.8 µM and the TGI [8] was > 100 µM. The TGI [9] was 74.7 µM, the TGI [10] was > 100 µM and the TGI [11] was > 100 µM. For the same compound, the TGI [12] was > 100 µM, the TGI [13] was 64.6 µM and the TGI [56] was 91.4 µM. The TGI [14] was 64.2 µM, the TGI [15] was > 100 µM and the TGI [16] was > 100 µM. The TGI [17] was > 100 µM, the TGI [18] was > 100 µM and the TGI [19] was > 100 µM. The TGI [20] was 77.2 µM, the TGI [21] was > 100 µM and the TGI [22] was 79.1 µM. For the same compound, the TGI [57] was 86.2 µM, the TGI [24] was 91.5 µM and the TGI [25] was > 100 µM. The TGI [26] was > 100 µM, the TGI [27] was 97.5 µM and the TGI [28] was 87.8 µM. For the same compound, the TGI [29] was > 100 µM, the TGI [30] was 69.1 µM and the TGI [31] was 95.2 µM. For the same compound, the TGI [32] was 81.6 µM, the TGI [33] was > 100 µM and the TGI [34] was 62 µM. For the same compound, the TGI [35] was > 100 µM, the TGI [36] was > 100 µM and the TGI [37] was 70 µM. The TGI [58] was 65.8 µM, the TGI [38] was > 100 µM and the TGI [39] was 92 µM. For the same compound, the TGI [40] was > 100 µM, the TGI [41] was 49.8 µM and the TGI [42] was > 100 µM. For the same compound, the TGI [43] was 88.1 µM, the TGI [44] was 90.8 µM and the TGI [45] was > 100 µM. The TGI [46] was > 100 µM, the TGI [47] was 81.8 µM and the TGI [59] was 73.5 µM. For the same compound, the TGI [48] was > 100 µM, the TGI [49] was 88.4 µM and the TGI [50] was > 100 µM. For the same compound, the TGI [51] was > 100 µM, the TGI [52] was > 100 µM and the TGI [53] was > 100 µM. The TGI [54] was > 100 µM.

For `C/C(=N\N=C(N)N)c1c(C(=O)OCCCCCCOC(=O)c2nc3sccn3c2/C(C)=N/N=C(N)N)nc2sccn12`, the TGI [1] was > 100 µM, the TGI [2] was > 100 µM and the TGI [3] was > 100 µM. The TGI [4] was > 100 µM, the TGI [5] was > 100 µM and the TGI [6] was > 100 µM. The TGI [55] was 63.2 µM, the TGI [7] was > 100 µM and the TGI [9] was > 100 µM. For the same compound, the TGI [10] was > 100 µM, the TGI [11] was > 100 µM and the TGI [12] was > 100 µM. The TGI [13] was > 100 µM, the TGI [14] was > 100 µM and the TGI [15] was > 100 µM. For the same compound, the TGI [16] was > 100 µM, the TGI [17] was > 100 µM and the TGI [18] was 50.1 µM. The TGI [19] was > 100 µM, the TGI [20] was > 100 µM and the TGI [21] was > 100 µM. For the same compound, the TGI [22] was > 100 µM, the TGI [57] was > 100 µM and the TGI [23] was > 100 µM. The TGI [24] was > 100 µM, the TGI [25] was > 100 µM and the TGI [26] was > 100 µM. For the same compound, the TGI [27] was > 100 µM, the TGI [28] was > 100 µM and the TGI [29] was > 100 µM. The TGI [30] was > 100 µM, the TGI [31] was > 100 µM and the TGI [33] was > 100 µM. For the same compound, the TGI [34] was > 100 µM, the TGI [35] was > 100 µM and the TGI [36] was > 100 µM. For the same compound, the TGI [37] was > 100 µM, the TGI [58] was > 100 µM and the TGI [38] was > 100 µM. The TGI [41] was > 100 µM, the TGI [42] was > 100 µM and the TGI [43] was > 100 µM. The TGI [45] was > 100 µM, the TGI [46] was > 100 µM and the TGI [47] was > 100 µM. For the same compound, the TGI [59] was 41.2 µM, the TGI [48] was > 100 µM and the TGI [49] was 42.5 µM. For the same compound, the TGI [50] was 55.1 µM, the TGI [51] was > 100 µM and the TGI [52] was > 100 µM. The TGI [53] was > 100 µM and the TGI [54] was > 100 µM.
